Test results taken from patent US10604527B2, “Pyrazine compounds for the treatment of hepatitis B infection” (Hoffmann-La Roche Inc., priority 2016, dated 2020).

System: HBV
Experiment: HBV inhibition assay in HepG2.2.15 cells (extracellular HBV DNA by qPCR)
Format: cell-based
Conditions: Hepatitis B virus, 120 h, extracellular HBV DNA in culture supernatant by qPCR, five days after compound treatment
Experimental: HepG2.2.15 is a stably-transfected cell line containing the HBV genome. It is derived from the hepatoblastoma cell line Hep G2 (American Type Culture Collection, ATCC® HB-8065™) by the published procedures described in reference: M A Selles et al. Proc. Natl. Acad. Sci. USA 1987, 84, 1005-1009. The cell line was maintained in Dulbecco's modified Eagle's medium (DMEM)-F12 medium supplemented with 10% fetal bovine serum, 20 mM L-glutamine, 0.1 mM NEAA, 50 U/mL penicillin, 50 μg/mL streptomycin, and 0.3 mg/mL of G418.
HepG2.2.15 cells were seeded into 96-well plates at a density of 3×10^4 cells per well in 100 μL DMEM/F12 media (Life Science, Cat. #: 11320-033) supplemented with 2.5% fetal bovine serum, 20 mM L-glutamine, 0.1 mM NEAA, 50 U/mL penicillin, 50 U/mL streptomycin and cultured overnight at 37° C. The test compounds were serially half-log diluted in DMSO, then diluted 100 times in culture media. 100 μL diluted solution of tested compounds were added into the plates to reach 0.5% final concentration of DMSO in every well. Five days after compound treatment, culture supernatant was collected for further analysis.
For quantitative PCR detection of extracellular HBV DNA, culture supernatant was processed by 500 μg/mL Proteinase K (Sigma, Cat. #: P2308) digestion at 50° C. for 1 hour. After heat inactivation of the enzyme at 95° C. for 15 minutes, the samples were subjected to HBV DNA quantification by qPCR. The effective compound concentration at which HBV replication inhibited by 50% (EC50) was determined.

Compound	EC50 [nM]
C[C@H]1Cn2ncc(S(=O)(=O)C3CC3)c2CN1C(=O)Nc1cc(F)c(F)c(F)c1 [Example 22, (6S)-3-cyclopropylsulfonyl-6-methyl-N-(3,4,5-trifluorophenyl)-6,7-dihydro-4H-pyrazolo[1,5-a]pyrazine-5-carboxamide]	78
CC(C)Oc1cnn2c1CN(C(=O)Nc1ccc(F)c(Cl)c1)C(C)C2 (centres unmarked) [Example 1, N-(3-chloro-4-fluoro-phenyl)-3-isopropoxy-6-methyl-6,7-dihydro-4H-pyrazolo[1,5-a]pyrazine-5-carboxamide]	18
C[C@H]1Cn2ncc(OC3CCN(S(C)(=O)=O)CC3)c2CN1C(=O)Nc1ccc(F)c(Cl)c1 [Example 6, (6S)-N-(3-chloro-4-fluoro-phenyl)-6-methyl-3-[(1-methylsulfonyl-4-piperidyl)oxy]-6,7-dihydro-4H-pyrazolo[1,5-a]pyrazine-5-carboxamide]	310
C[C@H]1Cn2ncc(Oc3ccccn3)c2CN1C(=O)Nc1cc(F)c(F)c(F)c1 [Example 7, (6S)-6-methyl-3-(2-pyridyloxy)-N-(3,4,5-trifluorophenyl)-6,7-dihydro-4H-pyrazolo[1,5-a]pyrazine-5-carboxamide]	984
C[C@H]1Cn2ncc(N(C)C(=O)OCc3ccccc3)c2CN1C(=O)Nc1cc(F)c(F)c(F)c1 [Example 37, Benzyl N-methyl-N-[(6S)-6-methyl-5-[(3,4,5-trifluorophenyl)carbamoyl]-6,7-dihydro-4H-pyrazolo[1,5-a]pyrazin-3-yl]carbamate]	475
C[C@H]1Cn2ncc(S(=O)(=O)N[C@@H]3CCOC3)c2CN1C(=O)Nc1cc(F)c(F)c(F)c1 [Example 30, (6S)-6-methyl-3-[[(3R)-tetrahydrofuran-3-yl]sulfamoyl]-N-(3,4,5-trifluorophenyl)-6,7-dihydro-4H-pyrazolo[1,5-a]pyrazine-5-carboxamide]	156
C[C@H]1Cn2ncc(S(=O)(=O)N3CC(F)(F)C3)c2CN1C(=O)Nc1cc(F)c(F)c(F)c1 [Example 31, (6S)-3-(3,3-difluoroazetidin-1-yl)sulfonyl-6-methyl-N-(3,4,5-trifluorophenyl)-6,7-dihydro-4H-pyrazolo[1,5-a]pyrazine-5-carboxamide]	22
COCCS(=O)(=O)N(C)c1cnn2c1CN(C(=O)Nc1cc(F)c(F)c(F)c1)[C@@H](C)C2 [Example 39, (6S)-3-[2-methoxyethylsulfonyl(methyl)amino]-6-methyl-N-(3,4,5-trifluorophenyl)-6,7-dihydro-4H-pyrazolo[1,5-a]pyrazine-5-carboxamide]	664
CC(C)S(=O)(=O)c1cnn2c1CN(C(=O)Nc1cc(F)c(F)c(F)c1)[C@@H](C)C2 [Example 20, (6S)-3-isopropylsulfonyl-6-methyl-N-(3,4,5-trifluorophenyl)-6,7-dihydro-4H-pyrazolo[1,5-a]pyrazine-5-carboxamide]	21
C[C@H]1Cn2ncc(S(=O)(=O)C3CCC(O)C3)c2CN1C(=O)Nc1cc(F)c(F)c(F)c1 (stereo partly drawn) [Example 34, (6S)-3-(3-hydroxycyclopentyl)sulfonyl-6-methyl-N-(3,4,5-trifluorophenyl)-6,7-dihydro-4H-pyrazolo[1,5-a]pyrazine-5-carboxamide]	96
C[C@H]1Cn2ncc(S(=O)(=O)N3CCCC3)c2CN1C(=O)Nc1ccc(F)c(Cl)c1 [Example 23, (6S)-N-(3-chloro-4-fluoro-phenyl)-6-methyl-3-pyrrolidin-1-ylsulfonyl-6,7-dihydro-4H-pyrazolo[1,5-a]pyrazine-5-carboxamide]	78
C[C@H]1Cn2ncc(S(=O)(=O)C3CCCC3)c2CN1C(=O)Nc1ccnc(Cl)c1 [Example 19, (6S)-N-(2-chloro-4-pyridyl)-3-cyclopentylsulfonyl-6-methyl-6,7-dihydro-4H-pyrazolo[1,5-a]pyrazine-5-carboxamide]	134
CC(C)CS(=O)(=O)c1cnn2c1CN(C(=O)Nc1ccc(F)c(Cl)c1)C(C)C2 (centres unmarked) [Example 13, N-(3-chloro-4-fluoro-phenyl)-3-isobutylsulfonyl-6-methyl-6,7-dihydro-4H-pyrazolo[1,5-a]pyrazine-5-carboxamide]	24
C[C@H]1Cn2ncc(S(=O)(=O)N3CC[C@@H](O)C3)c2CN1C(=O)Nc1cc(F)c(F)c(F)c1 [Example 29, (6S)-3-[(3R)-3-hydroxypyrrolidin-1-yl]sulfonyl-6-methyl-N-(3,4,5-trifluorophenyl)-6,7-dihydro-4H-pyrazolol[1,5-a]pyrazine-5-carboxamide]	146
C[C@H]1Cn2ncc(S(=O)(=O)C3CCOC3)c2CN1C(=O)Nc1cc(F)c(F)c(F)c1 (stereo partly drawn) [Example 16, (6S)-6-methyl-3-tetrahydrofuran-3-ylsulfonyl-N-(3,4,5-trifluorophenyl)-6,7-dihydro-4H-pyrazolo[1,5-a]pyrazine-5-carboxamide]	77
C[C@H]1Cn2ncc(OC3CCOCC3)c2CN1C(=O)Nc1ccc(F)c(Cl)c1 [Example 4, (6S)-N-(3-chloro-4-fluoro-phenyl)-6-methyl-3-tetrahydropyran-4-yloxy-6,7-dihydro-4H-pyrazolo[1,5-a]pyrazine-5-carboxamide]	107
C[C@H]1Cn2ncc(S(=O)(=O)C3CCOC3)c2CN1C(=O)Nc1ccc(F)c(Cl)c1 (stereo partly drawn) [Example 14, (6S)-N-(3-chloro-4-fluoro-phenyl)-6-methyl-3-tetrahydrofuran-3-ylsulfonyl-6,7-dihydro-4H-pyrazolo[1,5-a]pyrazine-5-carboxamide]	55
C[C@H]1Cn2ncc(S(=O)(=O)NC(C)(C)CO)c2CN1C(=O)Nc1cc(F)c(F)c(F)c1 [Example 27, (6S)-3-[(2-hydroxy-1,1-dimethyl-ethyl)sulfamoyl]-6-methyl-N-(3,4,5-trifluorophenyl)-6,7-dihydro-4H-pyrazolo[1,5-a]pyrazine-5-carboxamide]	156
C[C@H]1Cn2ncc(OC3CCOC3)c2CN1C(=O)Nc1ccc(F)c(Cl)c1 (stereo partly drawn) [Example 3, (6S)-N-(3-chloro-4-fluoro-phenyl)-6-methyl-3-tetrahydrofuran-3-yloxy-6,7-dihydro-4H-pyrazolo[1,5-a]pyrazine-5-carboxamide]	151
C[C@H]1Cn2ncc(S(=O)(=O)C3CCOCC3)c2CN1C(=O)Nc1ccc(F)c(Cl)c1 [Example 15, (6S)-N-(3-chloro-4-fluoro-phenyl)-6-methyl-3-tetrahydropyran-4-ylsulfonyl-6,7-dihydro-4H-pyrazolo[1,5-a]pyrazine-5-carboxamide]	97
C[C@H]1Cn2ncc(S(=O)(=O)N3CCOCC3)c2CN1C(=O)Nc1cc(F)c(F)c(F)c1 [Example 32, (6S)-6-methyl-3-morpholinosulfonyl-N-(3,4,5-trifluorophenyl)-6,7-dihydro-4H-pyrazolo[1,5-a]pyrazine-5-carboxamide]	179
CC(C)NS(=O)(=O)c1cnn2c1CN(C(=O)Nc1ccc(F)c(Cl)c1)[C@@H](C)C2 [Example 25, (6S)-N-(3-chloro-4-fluoro-phenyl)-3-(isopropylsulfamoyl)-6-methyl-6,7-dihydro-4H-pyrazolo[1,5-a]pyrazine-5-carboxamide]	82
C[C@H]1Cn2ncc(S(=O)(=O)C3CCOC3)c2CN1C(=O)Nc1ccnc(Cl)c1 (stereo partly drawn) [Example 17, (6S)-N-(2-chloro-4-pyridyl)-6-methyl-3-tetrahydrofuran-3-ylsulfonyl-6,7-dihydro-4H-pyrazolo[1,5-a]pyrazine-5-carboxamide]	871
CC(=O)N(C)c1cnn2c1CN(C(=O)Nc1cc(F)c(F)c(F)c1)[C@@H](C)C2 [Example 38, (6S)-3-[acetyl(methyl)amino]-6-methyl-N-(3,4,5-trifluorophenyl)-6,7-dihydro-4H-pyrazolo[1,5-a]pyrazine-5-carboxamide]	457
C[C@H]1Cn2ncc(OC3CCNC3=O)c2CN1C(=O)Nc1ccc(F)c(Cl)c1 (stereo partly drawn) [Example 5, (6S)-N-(3-chloro-4-fluoro-phenyl)-6-methyl-3-(2-oxopyrrolidin-3-yl)oxy-6,7-dihydro-4H-pyrazolo[1,5-a]pyrazine-5-carboxamide]	434
C[C@H]1Cn2ncc(Oc3ncccn3)c2CN1C(=O)Nc1cc(F)c(F)c(F)c1 [Example 8, (6S)-6-methyl-3-pyrimidin-2-yloxy-N-(3,4,5-trifluorophenyl)-6,7-dihydro-4H-pyrazolo[1,5-a]pyrazine-5-carboxamide]	713
